Among the data in ChEMBL document CHEMBL5465560, “Selectivity Literature for EUbOPEN Chemogenomic Library” (2024) are % of control and % of inhibition values, retold here.

Each structure is given as a SMILES string.

Assay [1] deals with Tyrosine-protein kinase Blk (Homo sapiens) (UniProt P51451). The assay is described as follows: Selectivity interaction (Kinase panel (Z-LYTE Assay)) EUB0001632a BLK. Conditions: at 10 µM.
For assay [2], the target named is Diacylglycerol kinase alpha (Homo sapiens) (UniProt P23743). The assay is described as follows: Selectivity interaction (ActivX KiNativ screen (ex vivo kinase selectivity in human PBMCs)) EUB0001619a DGKA. It counts as cell-based. Conditions: PBMC, at 1 µM.
Sequence of Diacylglycerol kinase alpha (Homo sapiens) (P23743 whole entry, canonical isoform): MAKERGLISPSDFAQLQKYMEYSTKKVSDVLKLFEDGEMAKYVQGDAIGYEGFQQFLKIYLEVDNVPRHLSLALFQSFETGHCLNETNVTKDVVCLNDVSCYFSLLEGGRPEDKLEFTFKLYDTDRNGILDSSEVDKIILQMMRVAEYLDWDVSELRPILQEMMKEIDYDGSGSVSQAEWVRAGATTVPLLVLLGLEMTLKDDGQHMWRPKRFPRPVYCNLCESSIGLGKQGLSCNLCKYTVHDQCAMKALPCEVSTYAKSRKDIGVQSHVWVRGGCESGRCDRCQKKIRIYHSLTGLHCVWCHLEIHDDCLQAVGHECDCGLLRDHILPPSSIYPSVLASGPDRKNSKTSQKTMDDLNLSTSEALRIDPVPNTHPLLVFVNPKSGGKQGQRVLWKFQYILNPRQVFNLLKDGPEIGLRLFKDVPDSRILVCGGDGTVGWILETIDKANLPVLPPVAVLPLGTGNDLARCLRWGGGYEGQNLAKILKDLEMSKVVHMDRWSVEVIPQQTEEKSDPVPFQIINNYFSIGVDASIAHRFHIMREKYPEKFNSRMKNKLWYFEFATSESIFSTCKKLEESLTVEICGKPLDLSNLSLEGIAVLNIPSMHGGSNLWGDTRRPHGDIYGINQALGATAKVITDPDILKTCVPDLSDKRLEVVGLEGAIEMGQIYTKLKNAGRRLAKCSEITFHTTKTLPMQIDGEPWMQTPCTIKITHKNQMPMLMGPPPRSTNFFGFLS
The target of assay [3] is Casein kinase I isoform gamma-2 (Homo sapiens) (UniProt P78368). The note with it: at 10 µM.
Sequence of Casein kinase I isoform gamma-2 (Homo sapiens) (P78368 whole entry, looked up, canonical isoform): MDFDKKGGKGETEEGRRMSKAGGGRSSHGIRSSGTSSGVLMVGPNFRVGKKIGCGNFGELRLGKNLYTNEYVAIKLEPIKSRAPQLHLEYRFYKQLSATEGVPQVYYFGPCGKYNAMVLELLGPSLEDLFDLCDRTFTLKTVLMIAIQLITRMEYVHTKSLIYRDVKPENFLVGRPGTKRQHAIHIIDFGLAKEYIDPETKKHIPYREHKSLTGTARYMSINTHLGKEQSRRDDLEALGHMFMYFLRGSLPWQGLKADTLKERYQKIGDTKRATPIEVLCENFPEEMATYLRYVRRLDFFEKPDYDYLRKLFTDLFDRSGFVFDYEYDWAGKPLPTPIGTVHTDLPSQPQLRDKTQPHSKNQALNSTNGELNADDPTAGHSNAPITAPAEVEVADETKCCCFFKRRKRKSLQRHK
Assay [4] addresses Phosphatidylinositol 4-phosphate 5-kinase type-1 alpha (Homo sapiens) (UniProt Q99755). The note with it: at 10 µM.
Assay [5] concerns the target ALK tyrosine kinase receptor (Homo sapiens, UniProt Q9UM73). In words: Selectivity interaction (KinaseProfiler screening (Millipore)) EUB0000601a ALK. Conditions: at 3 µM.
Assay [6] deals with Calcium/calmodulin-dependent protein kinase type 1D (Homo sapiens) (UniProt Q8IU85). In words: Selectivity interaction (ActivX KiNativ screen (kinase selectivity in THP-1 cell lysates)) EUB0000639a CAMK1D. It counts as subcellular. Conditions: lysate, at 0.04 µM.
For assay [7], the target named is T1, Serine/threonine-protein kinase Nek3 (Homo sapiens) (UniProt P51956).
T1 sequence (whole entry): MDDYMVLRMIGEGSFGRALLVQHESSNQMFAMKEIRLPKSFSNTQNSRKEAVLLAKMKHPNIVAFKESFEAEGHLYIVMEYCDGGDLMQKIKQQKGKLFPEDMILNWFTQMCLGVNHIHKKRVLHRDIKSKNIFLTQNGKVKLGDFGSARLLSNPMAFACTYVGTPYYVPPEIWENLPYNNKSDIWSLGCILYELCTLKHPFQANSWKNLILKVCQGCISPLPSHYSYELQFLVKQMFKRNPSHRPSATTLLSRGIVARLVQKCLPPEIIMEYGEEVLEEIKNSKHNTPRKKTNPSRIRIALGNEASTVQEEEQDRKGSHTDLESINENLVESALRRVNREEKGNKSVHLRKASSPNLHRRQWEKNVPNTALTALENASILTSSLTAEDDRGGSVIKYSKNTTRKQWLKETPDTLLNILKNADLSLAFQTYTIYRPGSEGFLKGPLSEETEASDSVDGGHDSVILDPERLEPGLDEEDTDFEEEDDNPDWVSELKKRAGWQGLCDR
The assay is described as follows: Selectivity interaction (KinomeScan (DiscoverX)) EUB0000045b NEK3.

Assay [8] concerns the target T2, Protein kinase C epsilon type (Homo sapiens) (UniProt Q02156).
T2 sequence (whole entry): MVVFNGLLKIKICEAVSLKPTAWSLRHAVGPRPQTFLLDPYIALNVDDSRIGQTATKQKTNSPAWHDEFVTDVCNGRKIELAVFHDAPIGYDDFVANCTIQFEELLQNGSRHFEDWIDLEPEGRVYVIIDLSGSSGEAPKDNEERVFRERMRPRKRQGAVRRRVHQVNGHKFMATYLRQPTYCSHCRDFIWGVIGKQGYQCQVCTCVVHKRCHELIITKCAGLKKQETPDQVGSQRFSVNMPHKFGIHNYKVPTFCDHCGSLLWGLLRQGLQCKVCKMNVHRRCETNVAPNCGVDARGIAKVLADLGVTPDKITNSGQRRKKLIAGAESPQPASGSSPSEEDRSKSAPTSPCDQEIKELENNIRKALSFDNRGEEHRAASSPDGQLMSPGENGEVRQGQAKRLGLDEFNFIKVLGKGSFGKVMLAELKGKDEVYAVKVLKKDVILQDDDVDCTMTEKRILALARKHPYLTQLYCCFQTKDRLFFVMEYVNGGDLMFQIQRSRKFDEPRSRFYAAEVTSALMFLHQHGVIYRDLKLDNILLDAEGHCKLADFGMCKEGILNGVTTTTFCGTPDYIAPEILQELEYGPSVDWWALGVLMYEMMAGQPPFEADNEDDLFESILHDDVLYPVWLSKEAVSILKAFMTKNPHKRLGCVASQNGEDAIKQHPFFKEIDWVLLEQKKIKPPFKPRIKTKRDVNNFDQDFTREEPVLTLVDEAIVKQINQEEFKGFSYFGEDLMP
In words: Selectivity interaction (ProQinase) EUB0000171b PRKCE.

Assay [9] addresses Fibroblast growth factor receptor 4 (Homo sapiens, UniProt P22455). In words: Selectivity interaction (Ambit KINOMEscan and KiNATiv profiling in Jurkat cells) EUB0000090b FGFR4. In kind it is cell-based. Conditions: at 1 µM.
For assay [10], the target named is T3, Prostaglandin G/H synthase 2 (Homo sapiens) (UniProt P35354).
T3 sequence (whole entry): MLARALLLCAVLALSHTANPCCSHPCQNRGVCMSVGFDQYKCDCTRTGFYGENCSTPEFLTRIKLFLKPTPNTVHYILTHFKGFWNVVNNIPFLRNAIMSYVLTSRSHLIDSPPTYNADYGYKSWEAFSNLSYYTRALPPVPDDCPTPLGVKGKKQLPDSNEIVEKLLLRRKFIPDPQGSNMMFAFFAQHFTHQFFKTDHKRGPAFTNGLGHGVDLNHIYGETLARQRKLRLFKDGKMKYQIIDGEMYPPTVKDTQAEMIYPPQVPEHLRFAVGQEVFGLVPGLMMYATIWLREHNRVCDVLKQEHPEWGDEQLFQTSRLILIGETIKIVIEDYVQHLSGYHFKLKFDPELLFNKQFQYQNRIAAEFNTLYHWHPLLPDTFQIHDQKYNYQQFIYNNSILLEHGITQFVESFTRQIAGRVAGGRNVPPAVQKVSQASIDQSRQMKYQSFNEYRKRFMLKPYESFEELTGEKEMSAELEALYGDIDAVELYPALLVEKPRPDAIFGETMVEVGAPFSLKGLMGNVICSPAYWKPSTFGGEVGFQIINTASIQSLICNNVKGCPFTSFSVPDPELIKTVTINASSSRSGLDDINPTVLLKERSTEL
In words: Selectivity interaction (Panel of non-epigenetic targets (kinases, GPCRs, ion channels, and transporters, Eurofins) ) EUB0000271b PTGS2. Conditions: at 1 µM.

Assay [11] deals with MAP kinase-activated protein kinase 2 (Homo sapiens, UniProt P49137). The assay is described as follows: Selectivity interaction (Millipore kinase profiler) EUB0000124b MAPKAPK2. The note with it: at 10 µM.
Sequence of MAP kinase-activated protein kinase 2 (P49137 whole entry, looked up): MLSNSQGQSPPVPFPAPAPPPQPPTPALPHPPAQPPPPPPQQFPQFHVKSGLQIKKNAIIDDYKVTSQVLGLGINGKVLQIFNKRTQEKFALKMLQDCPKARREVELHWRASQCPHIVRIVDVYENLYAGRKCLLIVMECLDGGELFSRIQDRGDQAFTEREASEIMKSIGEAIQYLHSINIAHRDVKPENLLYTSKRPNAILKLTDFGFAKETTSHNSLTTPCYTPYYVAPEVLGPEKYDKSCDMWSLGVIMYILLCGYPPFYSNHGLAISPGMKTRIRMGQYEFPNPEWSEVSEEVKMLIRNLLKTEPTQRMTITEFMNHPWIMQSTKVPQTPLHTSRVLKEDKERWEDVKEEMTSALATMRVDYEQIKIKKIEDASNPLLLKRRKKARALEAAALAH

Sequence of ALK tyrosine kinase receptor (Q9UM73 19-1620 limits assumed): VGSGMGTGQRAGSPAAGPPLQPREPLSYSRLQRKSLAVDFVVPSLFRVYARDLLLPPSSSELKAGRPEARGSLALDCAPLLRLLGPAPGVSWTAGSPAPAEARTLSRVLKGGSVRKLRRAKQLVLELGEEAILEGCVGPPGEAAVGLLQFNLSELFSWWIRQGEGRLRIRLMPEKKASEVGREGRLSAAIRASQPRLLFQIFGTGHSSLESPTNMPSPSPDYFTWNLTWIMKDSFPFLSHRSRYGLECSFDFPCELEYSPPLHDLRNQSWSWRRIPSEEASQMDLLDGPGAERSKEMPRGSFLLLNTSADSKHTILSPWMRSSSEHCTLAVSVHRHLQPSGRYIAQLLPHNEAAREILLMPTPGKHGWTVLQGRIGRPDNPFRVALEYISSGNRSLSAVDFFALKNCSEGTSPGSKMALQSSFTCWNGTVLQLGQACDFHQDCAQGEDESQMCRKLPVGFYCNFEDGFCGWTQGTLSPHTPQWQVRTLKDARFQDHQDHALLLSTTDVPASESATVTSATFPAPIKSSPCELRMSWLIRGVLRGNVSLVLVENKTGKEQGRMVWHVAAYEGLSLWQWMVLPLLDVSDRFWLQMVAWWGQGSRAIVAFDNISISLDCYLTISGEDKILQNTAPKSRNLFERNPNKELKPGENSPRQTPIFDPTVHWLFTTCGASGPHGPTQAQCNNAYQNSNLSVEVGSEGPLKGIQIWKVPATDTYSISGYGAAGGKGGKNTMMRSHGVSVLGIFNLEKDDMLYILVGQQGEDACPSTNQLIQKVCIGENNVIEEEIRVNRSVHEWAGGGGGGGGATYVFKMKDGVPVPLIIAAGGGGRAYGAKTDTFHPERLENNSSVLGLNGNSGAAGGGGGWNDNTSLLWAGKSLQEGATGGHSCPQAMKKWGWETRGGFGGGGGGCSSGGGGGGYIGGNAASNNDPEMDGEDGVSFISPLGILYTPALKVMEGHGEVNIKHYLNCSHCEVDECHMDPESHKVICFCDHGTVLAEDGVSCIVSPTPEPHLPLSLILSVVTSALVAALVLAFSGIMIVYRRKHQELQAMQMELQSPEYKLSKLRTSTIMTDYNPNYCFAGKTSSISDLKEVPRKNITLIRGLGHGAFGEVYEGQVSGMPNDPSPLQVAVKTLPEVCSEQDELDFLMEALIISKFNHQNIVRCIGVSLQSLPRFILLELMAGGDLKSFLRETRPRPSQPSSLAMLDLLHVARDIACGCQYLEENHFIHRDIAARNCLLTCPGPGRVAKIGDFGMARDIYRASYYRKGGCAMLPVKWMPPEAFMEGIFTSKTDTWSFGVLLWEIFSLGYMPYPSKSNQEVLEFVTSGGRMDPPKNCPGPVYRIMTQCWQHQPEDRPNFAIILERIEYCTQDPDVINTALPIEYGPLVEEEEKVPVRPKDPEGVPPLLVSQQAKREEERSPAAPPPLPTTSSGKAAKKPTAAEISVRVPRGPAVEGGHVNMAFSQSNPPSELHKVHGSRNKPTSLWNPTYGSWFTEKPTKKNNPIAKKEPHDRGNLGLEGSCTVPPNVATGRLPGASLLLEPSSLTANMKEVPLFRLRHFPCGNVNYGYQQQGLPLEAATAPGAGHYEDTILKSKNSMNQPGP
Sequence of Phosphatidylinositol 4-phosphate 5-kinase type-1 alpha (Homo sapiens) (Q99755 whole entry): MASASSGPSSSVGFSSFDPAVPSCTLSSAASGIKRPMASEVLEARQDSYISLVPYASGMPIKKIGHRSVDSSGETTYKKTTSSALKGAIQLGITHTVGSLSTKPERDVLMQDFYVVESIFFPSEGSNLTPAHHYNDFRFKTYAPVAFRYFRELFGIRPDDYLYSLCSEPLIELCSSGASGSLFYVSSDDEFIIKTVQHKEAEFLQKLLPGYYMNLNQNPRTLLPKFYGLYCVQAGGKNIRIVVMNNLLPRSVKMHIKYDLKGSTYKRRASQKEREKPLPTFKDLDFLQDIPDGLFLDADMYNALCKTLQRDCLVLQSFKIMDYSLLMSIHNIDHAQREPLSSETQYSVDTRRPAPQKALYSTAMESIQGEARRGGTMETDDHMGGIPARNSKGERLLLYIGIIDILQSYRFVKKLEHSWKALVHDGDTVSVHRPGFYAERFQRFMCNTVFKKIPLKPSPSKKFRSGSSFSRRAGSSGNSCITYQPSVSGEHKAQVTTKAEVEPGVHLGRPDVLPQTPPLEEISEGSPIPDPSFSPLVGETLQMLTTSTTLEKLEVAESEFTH
Sequence of Tyrosine-protein kinase Blk (Homo sapiens) (P51451 2-505 limits assumed): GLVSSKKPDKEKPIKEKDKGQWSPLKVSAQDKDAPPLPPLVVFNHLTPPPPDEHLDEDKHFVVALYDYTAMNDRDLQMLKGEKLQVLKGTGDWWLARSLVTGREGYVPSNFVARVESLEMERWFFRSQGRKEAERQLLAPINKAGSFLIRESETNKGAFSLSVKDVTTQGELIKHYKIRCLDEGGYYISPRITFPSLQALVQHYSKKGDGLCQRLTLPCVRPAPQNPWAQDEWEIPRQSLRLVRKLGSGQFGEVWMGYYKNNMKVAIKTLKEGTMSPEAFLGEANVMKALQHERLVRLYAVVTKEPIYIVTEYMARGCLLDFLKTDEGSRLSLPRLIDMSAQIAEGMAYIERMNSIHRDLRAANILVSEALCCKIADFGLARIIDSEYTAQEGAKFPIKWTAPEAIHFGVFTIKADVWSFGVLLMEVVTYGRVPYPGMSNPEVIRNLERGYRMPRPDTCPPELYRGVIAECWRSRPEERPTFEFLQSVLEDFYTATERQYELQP
Sequence of Fibroblast growth factor receptor 4 (P22455 22-802 limits assumed): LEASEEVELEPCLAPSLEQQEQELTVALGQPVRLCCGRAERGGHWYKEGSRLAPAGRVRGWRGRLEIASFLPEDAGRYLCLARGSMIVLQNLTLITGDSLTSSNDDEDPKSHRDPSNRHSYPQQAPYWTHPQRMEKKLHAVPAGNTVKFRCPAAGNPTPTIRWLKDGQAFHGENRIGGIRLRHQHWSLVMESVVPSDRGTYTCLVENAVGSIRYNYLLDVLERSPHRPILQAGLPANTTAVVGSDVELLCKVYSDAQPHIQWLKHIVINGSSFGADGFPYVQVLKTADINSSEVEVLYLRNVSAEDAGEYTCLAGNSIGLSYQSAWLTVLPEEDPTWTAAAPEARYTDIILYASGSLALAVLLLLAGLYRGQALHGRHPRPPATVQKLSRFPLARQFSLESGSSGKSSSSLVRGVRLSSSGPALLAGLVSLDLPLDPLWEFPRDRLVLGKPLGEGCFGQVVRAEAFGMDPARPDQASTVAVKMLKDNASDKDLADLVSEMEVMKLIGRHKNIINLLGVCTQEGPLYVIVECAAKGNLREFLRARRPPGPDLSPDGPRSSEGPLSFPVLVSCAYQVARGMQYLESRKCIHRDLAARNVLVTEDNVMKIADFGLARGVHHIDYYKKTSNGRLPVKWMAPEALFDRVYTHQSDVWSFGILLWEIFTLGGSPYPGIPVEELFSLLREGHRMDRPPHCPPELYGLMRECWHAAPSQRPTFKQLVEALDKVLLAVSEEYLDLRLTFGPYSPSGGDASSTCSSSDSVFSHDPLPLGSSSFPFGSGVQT

In turn, `Cn1cc(-n2cnc3c(NCc4nc5cc(Cl)c(Cl)cc5[nH]4)nc(N4CCOCC4)nc32)cn1` returned a % of control in assay [1] of 6.49%.

On to `N#Cc1cccc(-c2c[nH]c3ncnc(N4CCOCC4)c23)c1`, for which the % of inhibition in [2] is -9%.

Regarding `Cc1cc([C@@H](C)Nc2ccccc2C(=O)O)c2nc(N3CCOCC3)cc(=O)n2c1` [AZD-6482], the figures for the % of control in [3] and in [4] were 88% and 100%, respectively.

As for `CCc1cc(Nc2nccc(-c3c(-c4ccc(OC)c(C(=O)Nc5c(F)cccc5F)c4)nc4ccccn34)n2)c(OC)cc1N1CCC(N2CCN(S(C)(=O)=O)CC2)CC1`, in assay [5], the % of inhibition was 39%.

`CC[C@@H]1[C@H](F)C(=O)N[C@@H]1COc1nccc2cc(C(N)=O)c(OC)cc12` [ZIMLOVISERTIB]: in [6], the % of inhibition is -15.2%.

As to `C=CC(=O)Nc1cc(-n2c(=O)ccc3cnc4ccc(-c5ccc(NS(C)(=O)=O)cc5)cc4c32)ccc1C`, the % of control in assay [7] (at 1 µM) stood at 98%; in [7] (at 10 µM), 100%.

Regarding `C=CC(=O)Nc1cccc(C(=O)Nc2ccc(Nc3cc(-c4[nH]c(SC)nc4C)ccn3)cc2)c1`, the % of control worked out at 97% in assay [8] (at 1 µM) and 108% in assay [8] (at 5 µM).

In turn, `CN(C)C/C=C/C(=O)Nc1ccc(C(=O)N2CCCC(Nc3ncc(Cl)c(-c4c[nH]c5ccccc45)n3)C2)cc1` (stereo not drawn) displayed a % of control in assay [9] of 86%.

`Cc1cc(C)cc([C@@H]2c3cc(C)ccc3NC(=O)CN2C(=O)c2ccc(Br)s2)c1`: the % of inhibition in [10] was 8%.

In [11], `CC(=O)Nc1cccc(-n2c(=O)n(C3CC3)c(=O)c3c(Nc4ccc(I)cc4F)n(C)c(=O)c(C)c32)c1` displayed a % of control of 109%.
